One data set concerns the target T1, human UGT1A1 (Homo sapiens, UniProt P22309).
T1 sequence (P22309 26-533): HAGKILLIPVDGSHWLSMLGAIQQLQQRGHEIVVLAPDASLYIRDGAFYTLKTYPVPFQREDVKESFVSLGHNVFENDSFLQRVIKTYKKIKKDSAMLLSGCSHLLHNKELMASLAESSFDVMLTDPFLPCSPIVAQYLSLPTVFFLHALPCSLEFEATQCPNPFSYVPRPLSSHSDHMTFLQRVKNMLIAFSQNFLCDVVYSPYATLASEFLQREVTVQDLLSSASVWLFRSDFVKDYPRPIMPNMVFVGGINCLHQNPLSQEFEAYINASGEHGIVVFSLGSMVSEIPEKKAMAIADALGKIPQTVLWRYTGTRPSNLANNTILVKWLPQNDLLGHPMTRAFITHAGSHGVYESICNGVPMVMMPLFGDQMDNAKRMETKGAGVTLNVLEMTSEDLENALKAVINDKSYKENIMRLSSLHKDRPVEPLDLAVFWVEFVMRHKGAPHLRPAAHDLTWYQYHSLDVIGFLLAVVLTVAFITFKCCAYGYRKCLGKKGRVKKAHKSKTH
Nature of the data set: Epirubicin glucuronidation in microsomes expressing UGT1A1. The note with it: Nd = not detectable. The text has this:
(§1) Microsomes from human lymphoblasts and insect cells (BTI-TN-5B1-4) both transfected with a vector containing human UGT1A1, UGT1A3, UGT1A4, UGT1A6, UGT1A9 and UGT2B15 complementary DNA (cDNA) and their negative control (microsomes from cells infected with wild-type vector) were obtained from Gentest Corp. (Woburn, Mass.). Microsomes from insect cells (SF-9) infected with a baculovirus containing human cDNA for UGT2B7 and their negative control were purchased from PanVera (Madison, Wis.).
(§2) For this purpose, dried samples were reconstituted with 0.2 ml of sodium phosphate buffer (0.1 M, pH 6.8) containing 1000 U of β-glucuronidase (type VII, from E. coli) and incubated overnight at 37° C. Reference samples containing no enzyme were treated identically.
(§3) The mobile phase consisted of 30% acetonitrile and 70% 50 mM sodium dihydrogen phosphate (pH adjusted to 4 with 8.5% ortho-phosphoric acid).

The next data set deals with T2, human UGT2B15 (Homo sapiens, UniProt P54855).
T2 sequence (P54855 24-530): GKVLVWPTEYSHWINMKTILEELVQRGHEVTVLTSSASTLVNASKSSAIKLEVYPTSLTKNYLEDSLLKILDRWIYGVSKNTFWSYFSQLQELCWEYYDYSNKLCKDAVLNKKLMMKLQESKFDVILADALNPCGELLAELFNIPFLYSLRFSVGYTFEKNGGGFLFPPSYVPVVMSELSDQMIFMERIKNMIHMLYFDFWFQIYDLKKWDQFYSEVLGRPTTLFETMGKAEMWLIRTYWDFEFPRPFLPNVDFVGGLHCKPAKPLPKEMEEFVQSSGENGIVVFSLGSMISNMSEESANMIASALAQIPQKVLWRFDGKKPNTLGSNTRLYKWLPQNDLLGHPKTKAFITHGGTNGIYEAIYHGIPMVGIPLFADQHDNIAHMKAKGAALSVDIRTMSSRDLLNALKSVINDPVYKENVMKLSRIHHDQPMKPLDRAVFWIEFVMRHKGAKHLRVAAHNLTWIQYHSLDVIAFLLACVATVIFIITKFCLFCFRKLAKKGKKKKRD
Put plainly: Epirubicin glucuronidation in microsomes expressing UGT2B15. Particulars: Nd = not detectable.
Excerpt: as §1, §2, §3

The target of another data set is T3, human UGT1A4 (Homo sapiens, UniProt P22310).
T3 sequence (P22310 29-534): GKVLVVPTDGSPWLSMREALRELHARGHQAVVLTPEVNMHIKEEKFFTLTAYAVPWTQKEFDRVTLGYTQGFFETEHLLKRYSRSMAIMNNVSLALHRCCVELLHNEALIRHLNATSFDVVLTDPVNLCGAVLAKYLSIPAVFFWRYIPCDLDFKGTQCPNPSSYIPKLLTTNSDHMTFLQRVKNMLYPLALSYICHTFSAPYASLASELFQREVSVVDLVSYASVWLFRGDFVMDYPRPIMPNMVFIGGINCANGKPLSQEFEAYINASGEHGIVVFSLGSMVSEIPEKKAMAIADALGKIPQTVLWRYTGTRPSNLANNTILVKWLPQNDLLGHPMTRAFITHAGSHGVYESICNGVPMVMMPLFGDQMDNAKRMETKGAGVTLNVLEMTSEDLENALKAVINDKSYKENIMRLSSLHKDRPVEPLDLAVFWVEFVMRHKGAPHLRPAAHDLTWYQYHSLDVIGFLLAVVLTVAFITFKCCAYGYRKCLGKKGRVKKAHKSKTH
Nature of the data set: Epirubicin glucuronidation in microsomes expressing UGT1A4. Particulars: Nd = not detectable.
Excerpt: as §1, §2, §3

Another data set concerns the target T4, human UGT1A9 (Homo sapiens, UniProt O60656).
T4 sequence (O60656 26-530): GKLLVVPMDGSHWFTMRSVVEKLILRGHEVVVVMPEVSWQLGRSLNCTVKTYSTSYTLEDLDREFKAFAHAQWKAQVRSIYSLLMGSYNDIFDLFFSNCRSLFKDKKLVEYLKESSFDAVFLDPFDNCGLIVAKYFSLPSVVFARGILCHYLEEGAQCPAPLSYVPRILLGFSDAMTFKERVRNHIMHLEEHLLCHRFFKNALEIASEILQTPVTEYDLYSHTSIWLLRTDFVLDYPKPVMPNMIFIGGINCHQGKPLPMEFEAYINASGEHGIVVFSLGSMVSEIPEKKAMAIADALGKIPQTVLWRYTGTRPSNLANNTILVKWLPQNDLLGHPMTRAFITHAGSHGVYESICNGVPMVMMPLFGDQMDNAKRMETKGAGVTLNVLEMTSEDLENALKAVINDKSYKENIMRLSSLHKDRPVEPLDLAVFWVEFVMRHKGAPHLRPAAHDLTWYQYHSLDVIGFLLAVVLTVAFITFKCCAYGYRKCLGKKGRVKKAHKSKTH
Put plainly: Epirubicin glucuronidation in microsomes expressing UGT1A9. The note with it: Nd = not detectable.
Excerpt: as §1, §2, §3

Another data set deals with T5, human UGT1A3 (Homo sapiens, UniProt P35503).
T5 sequence (P35503 29-534): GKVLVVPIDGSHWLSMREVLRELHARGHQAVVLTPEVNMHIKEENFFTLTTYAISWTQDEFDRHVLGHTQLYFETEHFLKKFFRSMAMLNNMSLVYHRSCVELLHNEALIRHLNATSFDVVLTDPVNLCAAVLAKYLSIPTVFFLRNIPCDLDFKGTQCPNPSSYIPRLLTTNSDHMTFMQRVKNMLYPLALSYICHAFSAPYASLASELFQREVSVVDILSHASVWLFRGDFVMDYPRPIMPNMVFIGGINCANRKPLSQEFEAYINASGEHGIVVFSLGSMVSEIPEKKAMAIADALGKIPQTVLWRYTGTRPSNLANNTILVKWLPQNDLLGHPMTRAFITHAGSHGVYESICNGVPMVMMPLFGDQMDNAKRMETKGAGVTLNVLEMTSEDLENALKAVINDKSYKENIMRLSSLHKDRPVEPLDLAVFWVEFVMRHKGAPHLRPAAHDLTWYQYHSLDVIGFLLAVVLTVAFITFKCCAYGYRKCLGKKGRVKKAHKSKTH
Nature of the data set: Epirubicin glucuronidation in microsomes expressing UGT1A3. The note with it: Nd = not detectable.
Excerpt: as §1, §2, §3

A further data set addresses T6, human UGT1A6 (Homo sapiens, UniProt P19224).
T6 sequence (P19224 27-532): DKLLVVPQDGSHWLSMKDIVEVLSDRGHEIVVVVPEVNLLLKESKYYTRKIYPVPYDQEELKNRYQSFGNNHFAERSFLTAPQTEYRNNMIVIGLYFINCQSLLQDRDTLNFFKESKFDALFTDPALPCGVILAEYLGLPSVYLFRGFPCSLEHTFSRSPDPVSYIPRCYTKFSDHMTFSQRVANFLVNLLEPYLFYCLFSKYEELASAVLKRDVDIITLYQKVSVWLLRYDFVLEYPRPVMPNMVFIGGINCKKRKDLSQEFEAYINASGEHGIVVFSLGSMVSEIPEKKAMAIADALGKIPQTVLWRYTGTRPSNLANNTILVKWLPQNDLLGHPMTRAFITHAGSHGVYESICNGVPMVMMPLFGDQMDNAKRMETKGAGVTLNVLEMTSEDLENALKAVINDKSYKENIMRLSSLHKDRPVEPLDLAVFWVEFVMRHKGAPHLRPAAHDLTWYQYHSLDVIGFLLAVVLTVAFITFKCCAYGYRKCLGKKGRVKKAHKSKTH
Nature of the data set: Epirubicin glucuronidation in microsomes expressing UGT1A6. Particulars: Nd = not detectable.
Excerpt: as §1, §2, §3

For data set [1] the following is noted: cited from earlier work.

These results are taken from patent publication US20030099960A1, “Compositions and methods for optimizing UGT2B7 substrate dosings and for predicting UGT2B7 substrate toxicity” (The University of Chicago, priority 2001, published 2003).

Regarding `COc1cccc2c1C(=O)c1c(O)c3c(c(O)c1C2=O)C[C@@](O)(C(=O)CO)C[C@@H]3O[C@H]1C[C@H](N)[C@@H](O)[C@H](C)O1` [Epirubicin, 4′-epi-doxorubicin], the “Formation rate of epirubicin glucuronide” value at human UGT1A1, on human UGT2B15, on human UGT1A4, on human UGT1A9, on human UGT1A3 and at human UGT1A6 was “No epirubicin glucuronidating activity” throughout. The “Median half-life, first phase” value in data set [1] (3-compartment model) is given as “about 3.2 minutes”. Also, the “Median half-life, second phase” value in data set [1] (3-compartment model) was ~1.2 h. Besides, in data set [1] (3-compartment model), the “Median half-life, third phase” value was ~32 h. In data set [1] (elimination primarily biliary), the “Fraction excreted in the urine” value is recorded as “less than 15%”. For the same compound, in data set [1] (human, in vivo), the Total plasma clearance result is “about 46 L/h/m^2”.
